Assay results taken from patent publication US11517018B2, “Herbicidal composition comprising cinmethylin and saflufenacil” (BASF Agro B.V., priority 2015, dated 2022).
Values joined by “and” are separate entries in the source; they are usually repeats but may differ in a detail not shown here. Equal entries are not always repeated.

How the values were obtained:
Assay type in all cases: in vivo
Conditions in all cases: 20 DAT
Avena fatua [1] = assay: Greenhouse preemergence herbicidal activity, AVEFA
Procedure: (§1) The test plants have been seeded, separately for each species, in plastic containers in sandy loamy soil containing 5% of organic matter.
(§2) The containers were irrigated gently to promote germination and growth and subsequently covered with transparent plastic hoods until the plants had rooted.
(§3) The plants have been cultivated due to their individual requirements at 10-25° C. and 20-35° C. The plants were irrigated due to their necessity.
(§4) In the following experiments, the herbicidal activity for the individual herbicidal compositions (solo and mixture applications) was assessed 20 days after treatment (DAT).
(§5) The evaluation for the damage on undesired weeds caused by the chemical compositions was carried out using a scale from 0 to 100%, compared to the untreated control plants. Here, 0 means no damage and 100 means complete destruction of the plants.
(§6) E=X+Y−(X·Y/100) where • X=effect in percent using herbicide A at an application rate a; • Y=effect in percent using herbicide B at application rate b; • E=expected effect (in %) of herbicide A+herbicide B at application rates a+b.
(§7) The value E corresponds to the effect (plant damage or injury) which is to be expected if the activity of the individual compounds is additive. If the observed effect is higher than the value E calculated according to the Colby equation, a synergistic effect is present.

Lolium multiflorum [2] = assay: Greenhouse postemergence herbicidal activity, LOLMU
Procedure: as §1
(§8) For the post emergence treatment, the plants were first grown to the 2 leaf station (GS 12). Here, the herbicidal compositions were suspended or emulsified in water as distribution medium and sprayed using finely distributing nozzels.
as §3, §4, §5, §6, §7

Galium aparine = assay: Greenhouse preemergence herbicidal activity, GALAP
Procedure: as §1, §2, §3, §4, §5, §6, §7

Avena fatua [3] = assay: Greenhouse postemergence herbicidal activity, AVEFA
Procedure: as §1, §8, §3, §4, §5, §6, §7

Sorghum halepense [4] = assay: Greenhouse postemergence herbicidal activity, SORHA
Procedure: as §1, §8, §3, §4
The evaluation for the damage on undesired weeds caused by the chemical compositions was carried out using a scale from 0 to 100%, compared to the untreated control plants. Here, 0 means no damage and 100 means complete destruction of the plants. […]
as §7

Stellaria media [5] = assay: Greenhouse postemergence herbicidal activity, STEME
Procedure: as §1, §8, §3, §4, §5, §6, §7

Polygonum convolvulus = assay: Greenhouse preemergence herbicidal activity, POLCO
Procedure: as §1, §2, §3, §4, §5, §6, §7

Chenopodium album = assay: Greenhouse preemergence herbicidal activity, CHEAL
Procedure: as §1, §2, §3, §4, §5, §6, §7

Papaver rhoeas = assay: Greenhouse preemergence herbicidal activity, PAPRH
Procedure: as §1, §2, §3, §4, §5, §6, §7

Abutilon theophrasti = assay: Greenhouse preemergence herbicidal activity, ABUTH
Procedure: as §1, §2, §3, §4, §5, §6, §7

Geranium dissectum = assay: Greenhouse preemergence herbicidal activity, GERDI
Procedure: as §1, §2, §3, §4, §5, §6, §7

Setaria viridis = assay: Greenhouse preemergence herbicidal activity, SETVI
Procedure: as §1, §2, §3, §4, §5, §6, §7

Stellaria media [6] = assay: Greenhouse preemergence herbicidal activity, STEME
Procedure: as §1, §2, §3, §4, §5, §6, §7

Alopecurus myosuroides = assay: Greenhouse preemergence herbicidal activity, ALOMY
Procedure: as §1, §2, §3, §4, §5, §6, §7

Lolium multiflorum [7] = assay: Greenhouse preemergence herbicidal activity, LOLMU
Procedure: as §1, §2, §3, §4, §5, §6, §7

Sorghum halepense [8] = assay: Greenhouse preemergence herbicidal activity, SORHA
Procedure: as §1, §2, §3, §4, §5, §6, §7

Digitaria sanguinalis = assay: Greenhouse postemergence herbicidal activity, DIGSA
Procedure: as §1, §8, §3, §4, §5, §6, §7

[9] = saflufenacil solo 0.625 g ai/ha

Cc1ccccc1CO[C@@H]1C[C@@]2(C(C)C)CC[C@@]1(C)O2 (racemic) [herbicide A, (±)-2-exo-(2-Methylbenzyloxy)-1-methyl-4-isopropyl-7-oxabicyclo[2.2.1]heptane]
herbicidal activity (Avena fatua [1]; herbicide A solo 31.25 g ai/ha): 30%
herbicidal activity (Avena fatua [1]; herbicide A solo 50 g ai/ha): 0%
herbicidal activity (Avena fatua [1]; herbicide A solo 100 g ai/ha): 20%
herbicidal activity (Avena fatua [1]; herbicide A solo 125 g ai/ha): 35%
herbicidal activity (Avena fatua [1]; herbicide A solo 200 g ai/ha): 50%
herbicidal activity (Avena fatua [1]; herbicide A solo 250 g ai/ha): 60% and 70%
herbicidal activity (Avena fatua [1]; herbicide A solo 500 g ai/ha): 80%
herbicidal activity (Lolium multiflorum [2]; herbicide A solo 43.8 g ai/ha): 0%
herbicidal activity (Lolium multiflorum [2]; herbicide A solo 62.5 g ai/ha): 0%
herbicidal activity (Lolium multiflorum [2]; herbicide A solo 87.5 g ai/ha): 0%
herbicidal activity (Lolium multiflorum [2]; herbicide A solo 125 g ai/ha): 0%
herbicidal activity (Lolium multiflorum [2]; herbicide A solo 350 g ai/ha): 75%
herbicidal activity (Galium aparine; herbicide A solo 25 g ai/ha): 0%
herbicidal activity (Galium aparine; herbicide A solo 50 g ai/ha): 0%
herbicidal activity (Galium aparine; herbicide A solo 125 g ai/ha): 65%
herbicidal activity (Galium aparine; herbicide A solo 200 g ai/ha): 30%
herbicidal activity (Avena fatua [3]; herbicide A solo 43.8 g ai/ha): 25%
herbicidal activity (Avena fatua [3]; herbicide A solo 87.5 g ai/ha): 30%
herbicidal activity (Avena fatua [3]; herbicide A solo 350 g ai/ha): 70%
herbicidal activity (Sorghum halepense [4]; herbicide A solo 350 g ai/ha): 70%
herbicidal activity (Stellaria media [5]; herbicide A solo 43.8 g ai/ha): 0%
herbicidal activity (Stellaria media [5]; herbicide A solo 62.5 g ai/ha): 25%
herbicidal activity (Polygonum convolvulus; herbicide A solo 25 g ai/ha): 0%
herbicidal activity (Polygonum convolvulus; herbicide A solo 50 g ai/ha): 0%
herbicidal activity (Polygonum convolvulus; herbicide A solo 62.5 g ai/ha): 0%
herbicidal activity (Chenopodium album; CHEAI, herbicide A solo 62.5 g ai/ha): 40%
herbicidal activity (Chenopodium album; CHEAL, herbicide A solo 125 g ai/ha): 95%
herbicidal activity (Chenopodium album; CHEAL, herbicide A solo 500 g ai/ha): 85%
herbicidal activity (Papaver rhoeas; herbicide A solo 25 g ai/ha): 0%
herbicidal activity (Papaver rhoeas; herbicide A solo 31.25 g ai/ha): 65%
herbicidal activity (Papaver rhoeas; herbicide A solo 50 g ai/ha): 0%
herbicidal activity (Abutilon theophrasti; herbicide A solo 31.25 g ai/ha): 35%
herbicidal activity (Abutilon theophrasti; herbicide A solo 50 g ai/ha): 0%
herbicidal activity (Abutilon theophrasti; herbicide A solo 62.5 g ai/ha): 40%
herbicidal activity (Abutilon theophrasti; herbicide A solo 100 g ai/ha): 0%
herbicidal activity (Geranium dissectum; herbicide A solo 25 g ai/ha): 50%
herbicidal activity (Geranium dissectum; herbicide A solo 125 g ai/ha): 80%
herbicidal activity (Setaria viridis; herbicide A solo 31.25 g ai/ha): 95%
herbicidal activity (Setaria viridis; herbicide A solo 62.5 g ai/ha): 90%
herbicidal activity (Setaria viridis; herbicide A solo 125 g ai/ha): 95%
herbicidal activity (Setaria viridis; herbicide A solo 250 g ai/ha): 98%
herbicidal activity (Stellaria media [6]; herbicide A solo 31.25 g ai/ha): 40%
herbicidal activity (Stellaria media [6]; herbicide A solo 50 g ai/ha): 20%
herbicidal activity (Alopecurus myosuroides; herbicide A solo 31.25 g ai/ha): 95%
herbicidal activity (Alopecurus myosuroides; herbicide A solo 62.5 g ai/ha): 95% and 98%
herbicidal activity (Lolium multiflorum [7]; herbicide A solo 25 g ai/ha): 50%
herbicidal activity (Lolium multiflorum [7]; herbicide A solo 62.5 g ai/ha): 30%
herbicidal activity (Lolium multiflorum [7]; herbicide A solo 100 g ai/ha): 95%
herbicidal activity (Lolium multiflorum [7]; herbicide A solo 125 g ai/ha): 85%
herbicidal activity (Lolium multiflorum [7]; herbicide A solo 200 g ai/ha): 98%
herbicidal activity (Lolium multiflorum [7]; herbicide A solo 250 g ai/ha): 98%
herbicidal activity (Lolium multiflorum [7]; herbicide A solo 500 g ai/ha): 95%
herbicidal activity (Sorghum halepense [8]; herbicide A solo 50 g ai/ha): 95%
herbicidal activity (Sorghum halepense [8]; herbicide A solo 100 g ai/ha): 98%
herbicidal activity (Sorghum halepense [8]; herbicide A solo 200 g ai/ha): 98%
herbicidal activity (Digitaria sanguinalis; herbicide A solo 87.5 g ai/ha): 65%
herbicidal activity (Digitaria sanguinalis; herbicide A solo 125 g ai/ha): 85%

CC(C)N(C)S(=O)(=O)NC(=O)c1cc(-n2c(=O)cc(C(F)(F)F)n(C)c2=O)c(F)cc1Cl [saflufenacil, N′-{2-chloro-4-fluoro-5-[1,2,3,6-tetrahydro-3-methyl-2,6-dioxo-4-(trifluoromethyl)pyrimidin-1-yl]benzoyl}-N-isopropyl-N-methylsulfamide]
herbicidal activity (Avena fatua [1]; saflufenacil solo 4.4 g ai/ha): 0%
herbicidal activity (Avena fatua [1]; saflufenacil solo 6.25 g ai/ha): 0%
herbicidal activity (Avena fatua [1]; saflufenacil solo 8.8 g ai/ha): 0%
herbicidal activity (Avena fatua [1]; saflufenacil solo 12.5 g ai/ha): 0%
herbicidal activity (Avena fatua [1]; saflufenacil solo 35 g ai/ha): 20%
herbicidal activity (Avena fatua [1]; saflufenacil solo 50 g ai/ha): 0%
herbicidal activity (Lolium multiflorum [2]; [9]): 0%
herbicidal activity (Lolium multiflorum [2]; saflufenacil solo 1.25 g ai/ha): 0%
herbicidal activity (Lolium multiflorum [2]; saflufenacil solo 5 g ai/ha): 50%
herbicidal activity (Galium aparine; saflufenacil solo 3.13 g ai/ha): 0%
herbicidal activity (Galium aparine; saflufenacil solo 6.25 g ai/ha): 20%
herbicidal activity (Galium aparine; saflufenacil solo 17.5 g ai/ha): 95%
herbicidal activity (Galium aparine; saflufenacil solo 25 g ai/ha): 98%
herbicidal activity (Avena fatua [3]; [9]): 0%
herbicidal activity (Avena fatua [3]; saflufenacil solo 1.25 g ai/ha): 0%
herbicidal activity (Avena fatua [3]; saflufenacil solo 5 g ai/ha): 0%
herbicidal activity (Sorghum halepense [4]; saflufenacil solo 5 g ai/ha): 65%
herbicidal activity (Stellaria media [5]; [9]): 85%
herbicidal activity (Polygonum convolvulus; saflufenacil solo 3.13 g ai/ha): 20%
herbicidal activity (Polygonum convolvulus; saflufenacil solo 6.25 g ai/ha): 98%
herbicidal activity (Polygonum convolvulus; saflufenacil solo 8.8 g ai/ha): 90%
herbicidal activity (Chenopodium album; CHEAI, saflufenacil solo 25 g ai/ha): 90%
herbicidal activity (Chenopodium album; CHEAL, saflufenacil solo 25 g ai/ha): 90%
herbicidal activity (Papaver rhoeas; saflufenacil solo 3.13 g ai/ha): 95%
herbicidal activity (Papaver rhoeas; saflufenacil solo 4.4 g ai/ha): 85%
herbicidal activity (Papaver rhoeas; saflufenacil solo 6.25 g ai/ha): 90%
herbicidal activity (Abutilon theophrasti; saflufenacil solo 4.4 g ai/ha): 65%
herbicidal activity (Abutilon theophrasti; saflufenacil solo 6.25 g ai/ha): 98%
herbicidal activity (Abutilon theophrasti; saflufenacil solo 8.8 g ai/ha): 85%
herbicidal activity (Abutilon theophrasti; saflufenacil solo 12.5 g ai/ha): 98%
herbicidal activity (Geranium dissectum; saflufenacil solo 3.13 g ai/ha): 20%
herbicidal activity (Geranium dissectum; saflufenacil solo 17.5 g ai/ha): 80%
herbicidal activity (Setaria viridis; saflufenacil solo 4.4 g ai/ha): 0%
herbicidal activity (Setaria viridis; saflufenacil solo 25 g ai/ha): 60%
herbicidal activity (Setaria viridis; saflufenacil solo 50 g ai/ha): 65%
herbicidal activity (Stellaria media [6]; saflufenacil solo 4.4 g ai/ha): 90%
herbicidal activity (Stellaria media [6]; saflufenacil solo 6.25 g ai/ha): 95%
herbicidal activity (Alopecurus myosuroides; saflufenacil solo 4.4 g ai/ha): 0%
herbicidal activity (Alopecurus myosuroides; saflufenacil solo 8.8 g ai/ha): 0%
herbicidal activity (Alopecurus myosuroides; saflufenacil solo 25 g ai/ha): 0%
herbicidal activity (Lolium multiflorum [7]; saflufenacil solo 3.13 g ai/ha): 0%
herbicidal activity (Lolium multiflorum [7]; saflufenacil solo 12.5 g ai/ha): 0%
herbicidal activity (Sorghum halepense [8]; saflufenacil solo 6.25 g ai/ha): 0%
herbicidal activity (Sorghum halepense [8]; saflufenacil solo 12.5 g ai/ha): 10%
herbicidal activity (Sorghum halepense [8]; saflufenacil solo 25 g ai/ha): 30%
herbicidal activity (Digitaria sanguinalis; saflufenacil solo 1.25 g ai/ha): 75%
